Assays:
[1] = tested on: spleen cells of immunized mice; experiment: Splenocyte proliferation ([3H]thymidine incorporation) after in vitro restimulation with β-Gal; format: in vivo, Balb/c mice; details: i.n.
Experimental: (§1) Co-administration of β-Gal with 10 μg glycolipids 1, 5 and 6 induced a strong cellular immune responses against the β-Gal antigen in Balb/c mice. Balb/c mice were immunized by the i.n. or s.c. route with β-Gal alone or together with glycolipids 1, 5 and 6 three times at 2-wk intervals. 10 days after the final immunization, the immunized mice were sacrificed. Splenocytes of mice immunized by the i.n. (A) and s.c. (B) route were collected and cultured with different concentrations of the β-Gal-Protein for 4 days. […] Curves represent [^3H]thymidine incorporation (counts per minute, cpm) and Stimulation index (SI) in each group. Each group consists of five mice. Data are representative of three separate experiments.
as §1, with “with 20 up to 30” for “with 10”, “glycolipids” for “glycolipids 1,”, “represent [3H]thymidine incorpoaration” for “represent [^3H]thymidine incorporation”
Experimental protocol: Spleens were removed and pooled for analysis of cellular immune responses. Cells were grown in RPMI 1640 supplemented with 10% fetal calf serum, 100 U/ml of penicillin, 50 μg/ml of streptomycin, 5×10^−5 M 2-mercaptoethanol and 1 mM L-glutamine (GIBCO BRL, Karlsruhe, Germany) and maintained at 37° C. in a humidified 5% CO2 atmosphere. Spleen cell suspensions were adjusted to 5×10^6 cells/ml in complete medium, cells were seeded with 100 μl per well in a flat-bottomed 96-well microtiter plate (Nunc) and plates were incubated for 4 days. Unstimulated spleen cells were incubated in the presence of different concentrations of the new adjuvants to analyze the in vitro stimulation capacity of glycolipids 1, 5 or 6, respectively. T cellmediated immune responses were investigated at day 38 by measuring the proliferation of cells recovered from spleens after in vitro restimulation with β-Gal. Said spleen cells were obtained from vaccinated mice—said mice where immunized as described in Example 2—and incubated in the presence of different concentrations of the soluble β-Gal antigen. Each concentration was tested in triplicates. During the final 18 h of culture, 1 μCi of [^3H]thymidine (Amersham International, Freiburg, Germany) was added to each well. Cells were then harvested on paper filters (Filtermat A; Wallac, Freiburg, Germany) by using a cell harvester (Inotech, Wohlen, Switzerland), and the amount of incorporated [^3H]thymidine into the DNA of proliferating cells was determined by a β-scintillation counter (Wallac 1450, Micro-Trilux). The results are expressed as the arithmetic mean of [^3H]thymidine uptake in cpm.

[2] = tested on: IFN-γ, IL-2, IL-4, IL-5, and TNFα; experiment: Cytometric bead array of cytokines in supernatants of restimulated spleen cells; format: in vivo, Balb/c mice; details: i.n., 10 μg glycolipid, restimulation with β-Gal antigen for 4 days
Experimental: Co-administration of β-Gal with 10 μg glycolipid 5 represented both Th1 and Th2 cytokine profiles activities in Balb/c mice. 10 days after the final immunization, the immunized Balb/c mice were sacrificed. A total of 5×10^6 cells/ml were stimulated with different concentrations of the β-Gal antigen for 4 days, and the levels of IFNγ and IL-4 in the supernatant were examined by the BD Cytometric bead array. Cytokine production of the spleen cells were analyzed using BD CBA kit according to the manufacturer's instructions. […] Curves represent cytokine concentration (pg/ml) and Stimulation index (SI) in response to enhanced antigen concentration in each group. Each group consists of five mice. Data are representative of two separate experiments.
To characterize the type of Th response stimulated following immunization, the content of IFN-γ, IL-2, IL-4, IL-5, and TNFα was measured in supernatants from in vitro re-stimulated spleen cells (FIGS. 8 and 9) by the Cytometric Bead Array. Culture supernatants from proliferating cells were collected on days 2 and 4, and stored at −70° C. Determinations of IFN-γ, TNFα, IL-2, IL-4, and IL-5 were performed by cytometric bead array analysis using the commercial kit from BectonDickinson, according to the manufacturer's instructions. […] The probes were analyzed subsequently by flow cytometry as described in the protocol of BD.

[3] = 10 μg glycolipid, restimulation with β-Gal for 4 days

Row | Structure (SMILES) | Stimulation index (SI), [3H]thymidine incorporation of spleen cells [1, 3] | Stimulation index (SI), [3H]thymidine incorporation of spleen cells ([1]; 20 up to 30 μg glycolipid, restimulation with β-Gal for 4 days) | Stimulation index (SI), [3H]thymidine incorporation of spleen cells ([1]; highest concentration (30 μg per animal)) | expression of proinflammatory (TNFα), Th1 (IFNγ and IL-2) and Th2 (IL-5) cytokines by spleen cells [2]
1 | CCCCCCCCCCCCCCOCC(COCCCCCCCCCCCCCC)O[C@@H]1O[C@H](CO[C@H]2O[C@H](CO)[C@H](O)[C@H](O)[C@H]2O)[C@@H](O)[C@H](O)[C@H]1O [glycolipid 6, 1,3-di-O-tetradecyl-2-O-[6′-O-(α-D-galactopyranosyl)-β-D-glucopyranosyl]-sn-glycerol] | no effect | strong responses | > 3 | –
2 | CCCCCCCC/C=C\CCCCCCCCOCC(COCCCCCCCC/C=C\CCCCCCCC)O[C@@H]1O[C@H](CO)[C@@H](O[C@H]2O[C@H](CO)[C@@H](O)[C@H](O)[C@H]2O)[C@H](O)[C@H]1O (relative stereo) [glycolipid 1, 1,3-Di-O[cis-9-octadecenyl]-2-O-[4′-O-(α-D-glycopyranosyl)-β-D-glycopyranosyl]-sn-glycerol] | no effect | – | – | –
3 | CCCCCCCCCCCCCCOCC(COCCCCCCCCCCCCCC)O[C@@H]1O[C@H](CO)[C@@H](O[C@H]2O[C@H](CO)[C@@H](O)[C@H](O)[C@H]2O)[C@H](O)[C@H]1O [glycolipid 5, 1,3-Di-O-tetradecyl-2-O-[4′-O-(α-D-glucopyranosyl)-β-D-glucopyranosyl]-sn-glycerol] | – | – | – | enhanced expression

From patent US8211463B2, “Use of glycolipids as adjuvants” (Helmholtz-Zentrum Fuer Infektionsforschung GmbH, priority 2006, dated 2012)
